Assay results published in patent publication US7176216B2, “7-phenylpyrazolopyridine compounds” (Eisai Co., Ltd., priority 2002, dated 2007).
Where two headings read alike, the source gives them in different places.

Assays:
[1] = test system: CRF-induced cAMP production in AtT-20 cells; experiment: cAMP production inhibition experiment using AtT-20 cells; assay type: cell-based; details: Mus musculus, AtT20, CRF 30 nM
Description: <cAMP Production Inhibition Experiment Using AtT-20 Cells>
AtT-20 cell is a cell-line derived from mouse pituitary gland tumor, which is known to respond to corticotropin releasing hormone (CRF), to produce cAMP by activation of the intracellular adenylate cyclase system, and to release adrenocorticotropic hormone (ACTH) (Biochem. Biophys. Res. Com., 106, 1364–1371, 1982). In this experiment, AtT-20 cells (1×10^5) were suspended in D-MEM (0.1% FBS) and seeded in a 96-well plate, and then 1 mM (final concentration) phosphodiesterase inhibitor (IBMX, Calbiochem) was added prior to incubation for 30 minutes at 37° C. The diluted test compound solution was then added prior to incubation for 30 minutes at 37° C., and CRF (final concentration: 30 nM) was added prior to further incubation for 30 minutes at 37° C. The cells were collected by centrifugation (1,800 rpm (630×g), 5 minutes), and then lysed with lysis buffer (0.2% dodecyltrimethylammmonium bromide), and the intracellular cAMP production was assayed by HTRF method. cAMP kit HTRF (Nihon Schering) was used for the cAMP assay.
(2) Calculation of cAMP Production Inhibitory Activity;
The cAMP production of each sample was represented as a percentage (% of control), with the CRF (final concentration: 30 nM)-added cells defined as 100% (control).

CYP3A4 = details: human, hepatocytes, 48 h
Description: Evaluation of Drug Metabolizing Enzyme (CYP3A4) Inducibility Using Cryopreserved Human Hepatocyte
Cryopreserved hepatocytes (In Vitro Technology) were rapidly thawed while stirring at 37° C., and then ice-cooled William's Medium E (10% FBS, +PSG) was slowly added to the cells prior to centrifugation at 500 rpm for 5 minutes. After removing the supernatant, the obtained hepatocytes were diluted with ice-cooled William's Medium E to a concentration of 5×10^5 cells/mL, seeded on a 48-well collagen coated plate (BD Biosciences) at 1×10^5 cells/cm^2 and incubated for about 24 hours at 37° C., 5% CO2, after which the medium was changed with Hepato-STIM™ (BD Biosciences) (+EGF, PSG, −FBS) and culture was maintained for another 24 hours under conditions of 37° C., 5% CO2. At approximately 48 hours after the cell seeding, the test compound or rifampicin (SIGMA, positive control) in the form of a diluted solution (using Hepato-STIM™ (+EGF, PSG, −FBS)) was added, hepatocyte were incubated for about 24 hours under conditions of 37° C., 5% CO2, and the culture medium was changed with medium containing a freshly prepared dilution of the test compound or rifampicin prior to further incubation for 24 hours under the same conditions. After incubation, the cells were washed once with PBS, and the total RNA was extracted using a Qiagen RNeasy Mini kit (Qiagen). The cDNA was synthesized by reverse-transcription of extracted using TaqMan Reverse Transcription Reagents (Applied Biosystems). The reverse transcription reaction was carried out using oligo dT as primer, with treatment at 25° C. for 10 minutes followed by treatment at 48° C. for 60 minutes, after which the reverse transcriptase was inactivated by treatment at 95° C. for 10 minutes. The obtained cDNA was supplied to a PCR using a Gene Amp PCR system 9700. The obtained cDNA was quantitated using an SYBR Green PCR Core Reagents kit (Applied Biosystems), and the human CYP3A4 and GAPDH mRNA was quantitated using an ABI7700 (Applied Biosystems). The abbreviations used in the test example are explained below. • FBS: Fetal Bovine Serum • PSG: Penicillin (100 U/ml), Streptomycin (100 μg/ml), Glutamine (2 mM) • EGF: Epidermal Growth Factor • GAPDH: Glyceraldehyde-3-Phosphate Dehydrogenase
(2) Calculation of CYP3A4 Inducibility:
Next, for comparison of each test run, the differences between the value of the CYP3A4 mRNA amount divided by the GAPDH mRNA amount with addition of the test compound at various concentrations and with addition of the negative control were calculated as percentages, with 100% being defined as the difference between the values of the CYP3A4 mRNA amount divided by the GAPDH mRNA amount for the positive control and negative control, to determine the inducibility of each test compound.

human CRFR1 = molecular target: T1, human CRFR1 (Homo sapiens, UniProt P34998); experiment: CRFR binding experiment (125I-CRF, SPA, membrane fraction of CRFR1-expressing HEK293 cells); details: 100 pM 125I-CRF, read-out: CRF1 receptor binding affinity IC50
T1 construct: The full-length CRFR1 gene was obtained by PCR using human brain cDNA library; expressed in transfected cells
T1 sequence (P34998 24-415): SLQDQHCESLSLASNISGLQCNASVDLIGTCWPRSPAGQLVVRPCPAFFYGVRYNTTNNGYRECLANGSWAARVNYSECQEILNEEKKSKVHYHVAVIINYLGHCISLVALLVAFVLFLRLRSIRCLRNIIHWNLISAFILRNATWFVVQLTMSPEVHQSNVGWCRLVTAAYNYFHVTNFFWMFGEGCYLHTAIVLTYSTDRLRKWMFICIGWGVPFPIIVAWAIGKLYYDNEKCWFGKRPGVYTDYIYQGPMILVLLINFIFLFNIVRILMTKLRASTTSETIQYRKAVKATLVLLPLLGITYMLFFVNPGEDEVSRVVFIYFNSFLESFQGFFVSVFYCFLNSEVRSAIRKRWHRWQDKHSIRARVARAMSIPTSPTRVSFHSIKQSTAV
Description: <CRFR Binding Experiment>
The full-length CRFR1 gene was obtained by PCR using human brain cDNA library (QuickClone™ Clontech). […] The CRFR1 expression vector was introduced into HEK293 cell, and the resistant cells which proliferated in culture medium containing G418 (1 mg/ml) were cloned by the limiting dilution method. […] And the selected cells were used for the experiments.

| IC50 [1] [nM] | % of Positive Control (CYP3A4 inducibility) (CYP3A4; 0.03 μM) [%] | % of Positive Control (CYP3A4 inducibility) (CYP3A4; 0.1 μM) [%] | % of Positive Control (CYP3A4 inducibility) (CYP3A4; 0.3 μM) [%] | % of Positive Control (CYP3A4 inducibility) (CYP3A4; 1 μM) [%] | inducibility (CYP3A4), positive control defined as 100% (CYP3A4; 1 μM) [%] | % of Positive Control (CYP3A4 inducibility) (CYP3A4; 3 μM) [%] | % of Positive Control (CYP3A4 inducibility) (CYP3A4; 10 μM) [%] | IC50 (human CRFR1) [nM] | SMILES |
| --- | --- | --- | --- | --- | --- | --- | --- | --- | --- |
| 4 | 6 | 7 | 12 | 20 | ≤ 40 | 36 | 65 |  | CCc1nn2c(-c3c(OC)cc(COC)cc3OC)cccc2c1N(CC1CCOCC1)CC1CC1 [Example 1, N-Cyclopropylmethyl-N-7-[2,6-dimethoxy-4-(methoxymethyl)phenyl]-2-ethylpyrazolo[1,5-a]pyridin-3-yl-N-tetrahydro-2H-4-pyranylmethylamine] |
| 5.1 | 3 | 3 | 7 | 25 | ≤ 40 | 23 | 34 |  | CCOCc1cc(OC)c(-c2cccc3c(N(CC4CCOCC4)CC4CC4)c(CC)nn23)c(OC)c1 [Example 3, N-Cyclopropylmethyl-N-7-[4-(ethoxymethyl)-2,6-dimethoxyphenyl]-2-ethylpyrazolo[1,5-a]pyridin-3-yl-N-tetrahydro-2H-4-pyranylmethylamine] |
| 11 |  |  |  |  |  |  |  |  | CCCN(CC1CCOCC1)c1c(CC)nn2c(-c3c(OC)cc(COC)cc3OC)cccc12 [Example 13, N-7-[2,6-Dimethoxy-4-(methoxymethyl)phenyl]-2-ethylpyrazolo[1,5-a]pyridin-3-yl-N-propyl-N-tetrahydro-2H-4-pyranylmethylamine] |
| 6 |  |  |  |  |  |  |  | 50 | CCCN(CC1CCOCC1)c1c(CC)nn2c(-c3c(OC)cc(COCC)cc3OC)cccc12 [Example 23, N-7-[4-(Ethoxymethyl)-2,6-dimethoxyphenyl]-2-ethylpyrazolo[1,5-a]pyridin-3-yl-N-propyl-N-tetrahydro-2H-4-pyranylmethylamine] |
| 50 |  |  |  |  |  |  |  |  | COCc1cc(OC)c(-c2cccc3c(N(CC4CCOCC4)CC4CC4)c(OC)nn23)c(OC)c1 [Example 47, N-Cyclopropylmethyl-N-7-[2,6-dimethoxy-4-(methoxymethyl)phenyl]-2-methoxypyrazolo[1,5-a]pyridin-3-yl-N-tetrahydro-2H-4-pyranylmethylamine] |
| 3.5 | 2 | 3 | 11 | 25 | ≤ 40 | 49 | 59 |  | COCc1cc(OC)c(-c2cccc3c(N(CC4CCOCC4)CC4CC4)c(SC)nn23)c(OC)c1 [Example 59, N-Cyclopropylmethyl-N-[7-[2,6-dimethoxy-4-(methoxymethyl)phenyl]-2-(methylsulfanyl)pyrazolo[1,5-a]pyridin-3-yl]-N-tetrahydro-2H-4-pyranylmethylamine] |
| 3.5 |  |  |  |  |  |  |  | 30 | COCc1cc(OC)c(-c2cccc3c(N(CC4CC4)CC4CCOC4)c(SC)nn23)c(OC)c1 (stereo not drawn) [Example 60, N-Cyclopropylmethyl-N-[7-[2,6-dimethoxy-4-(methoxymethyl)phenyl]-2-(methylsulfanyl)pyrazolo[1,5-a]pyridin-3-yl]-N-tetrahydro-3-furanylmethylamine] |
